# Laboratory results from patent publication US20020058266A1, “EF-Tu protein encoded on the plastid DNA of the malaria parasite and protein synthesis inhibitors effective as anti-malarial compounds” (priority 1997, published 2002).
# Key:
# [1] = system: erythrocytic stages of P.falciparum; test: Incorporation of radiotracers (3H-hypoxanthine, 14C-isoleucine) by P.falciparum growing in blood cultures; format: cell-based, Plasmodium falciparum
# Method: Antibiotics—Samples of Mocimycin (kirromycin), Aurodox (N-methylated kirromycin), and Efrotomycin (a glycoside of kirromycin) were used. Aurodox was dissolved in RPMI-Albumax medium (Grande et al 1977), kirromycin was dissolved in RPMI made alkaline by addition of 1M NaOH, and efrotomycin was dissolved in ethanol before dilution in culture medium. Enacyloxin IIA was dissolved in 1% NaHCO3 prior to dilution in RPMI-Albumax medium. The antibiotic GE2270A was dissolved in 100% DMSO before dilution in culture medium. Fusidic acid (Sigma) was dissolved directly in culture medium, and thiostrepton (Sigma) in 100% DMSO before dilution in culture medium. A hemisuccinate form of thiostrepton was prepared as a potassium salt, according to Bodanszky et al 1965. Incorporation of radiotracers by P.falciparum growing in blood cultures in the presence and absence of drugs was carried out as described (Strath et al 1993).
# Kirromycin: Kirromycin-resistant forms of bacterial EF-Tu are modified at one of seven amino acids along the opposing interfaces of domains I and III (Mesters et al 1994 and Abdulkarim et al 1994) and Pf EF-Tupl has a substitution at one of these sites (A375S-E.coli numbers) that could potentially confer resistance to kirromycin. To test this possibility, kirromycin (Mocimycin), its methylated derivative Aurodox or its disaccharide derivative Efrotomycin were incubated with erythrocytic stages of P.falciparum grown in cultures over a 36 hr period. The incorporation of both ^3H-hypoxanthine and ^14C-isoleucine was inhibited in a dose-dependent fashion, maximum inhibition being achieved at 100 μM kirromycin (FIG. 5). […] Once maximal depression of incorporation had been reached at any particular dose of drug, residual incorporation continued at a uniform rate thereafter. Vital staining with rhodamine 123, a fluorescent dye that concentrates within the mitochondrion (Divo et al. 1985) confirmed the parasiticidal effect, loss of specific mt staining being evident within 2-3 hours (data not shown). […] Blood cultures of P.falciparum were about 10 times more sensitive to the antibiotic than a gram-positive bacterium (Corynebacterium spp) used in parallel bioassays.
# [2] = system: GTPase domain of Pf 23S rRNApl; test: Thiostrepton filter binding assay, transcripts of the GTPase domain of Pf 23S rRNApl (wild type and mutated); parameters: species or system Plasmodium falciparum
# Method: (§1) A) Short 23S transcripts of P.falciparum (Pf) wild type rRNApl (open circle A1067) and mutated forms (open square A1067U and filled triangle A1067G), as well as Pf 28S rRNA transcripts (filled square), are compared with an optimized E.coli control transcript (filled circle). For convenience, nucleotide numbers correspond to E.coli.
# (§2) Drug binding—Thiostrepton binding to short rRNA transcripts generated in vitro was assayed according to Ryan et al 1991, as modified by Clough et al 1997. […] Before […], samples were incubated on ice for 15 mins in 50 mM imidazole acetate (pH 7.6), 10 mM NH4Cl, 10 mM MgCl2, 1 mM […] and 100 μM GDP, in a final volume of 20 μl.
# Having established thiostrepton's activity, we asked “does the antibiotic bind preferentially to the nuclear, mitochondrial or plastid forms of Pf 28/23 S rRNA?”. Evidence that the highest affinity interaction of thiostrepton is with 23S rRNApl was obtained from an in vitro binding assay (Ryan et al 1991). Short transcripts of wild type (wt) RNA corresponding to the GTPase domain of Pf 23S rRNApl (nts 987-1078) were transcribed in vitro from a PCR product that included a T7 promoter sequence in one of the primers. Mutated malarial rRNA sequences (E.coli numbers A1067U and A1067G) were obtained by PCR methodology and transcribed in the same way. Both wild type and modified transcript sequences were verified prior to thiostrepton binding assays. A positive control transcript was used based on the 23S rRNA sequence of E.coli with a mutation (U1061A) that increases stability and binding. […] An intermediate level of binding (˜35% of wt) was obtained with the mutation Pfpl (E.coli number A1067G). Thiostrepton binding to a transcript corresponding to the GTPase domain (nt 1334-1427) of the cytosolic Pf 28S rRNA was ˜10% of that for Pf 23S rRNApl.
# [3] = system: GTPase domain of the cytosolic Pf 28S rRNA; test: Thiostrepton filter binding assay, cytosolic Pf 28S rRNA transcript; parameters: species or system Plasmodium falciparum; details: GTPase domain nt 1334-1427
# Method: as §1, §2
# Having established thiostrepton's activity, we asked “does the antibiotic bind preferentially to the nuclear, mitochondrial or plastid forms of Pf 28/23 S rRNA?”. Evidence that the highest affinity interaction of thiostrepton is with 23S rRNApl was obtained from an in vitro binding assay (Ryan et al 1991). Short transcripts of wild type (wt) RNA corresponding to the GTPase domain of Pf 23S rRNApl (nts 987-1078) were transcribed in vitro from a PCR product that included a T7 promoter sequence in one of the primers. Mutated malarial rRNA sequences (E.coli numbers A1067U and A1067G) were obtained by PCR methodology and transcribed in the same way. […]
# [4] = system: GTPase domain of the E. coli 23S rRNA; test: Thiostrepton binding assay, E. coli 23S rRNA transcript; details: contains the A at position 1067
# Method: The binding was specific. It depended to a large extent on the presence of an A residue at the position corresponding to E. coli position 1067. […] A transcript corresponding to the GTPase domain of the cytosolic malaria 28S rRNA also bound thiostrepton poorly.
# as §2
# Having established thiostrepton's activity, we asked “does the antibiotic bind preferentially to the nuclear, mitochondrial or plastid forms of Pf 28/23 S rRNA?”. Evidence that the highest affinity interaction of thiostrepton is with 23S rRNApl was obtained from an in vitro binding assay (Ryan et al 1991). Short transcripts of wild type (wt) RNA corresponding to the GTPase domain of Pf 23S rRNApl (nts 987-1078) were transcribed in vitro from a PCR product that included a T7 promoter sequence in one of the primers. Mutated malarial rRNA sequences (E.coli numbers A1067U and A1067G) were obtained by PCR methodology and transcribed in the same way. Both wild type and modified transcript sequences were verified prior to thiostrepton binding assays. […]
# [5] = system: GTPase domain of the 23S rRNApl of Toxoplasma gondii; test: Thiostrepton filter binding assay, T. gondii 23S rRNApl transcripts
# Method: B) T. gondii wild type rRNApl transcript (filled triangle) and mutated transcript (open triangle) compared with control transcripts from P.falciparum rRNApl (open circle) and E.coli (filled circle).
# as §2
# In the same way, we tested a transcript corresponding to the GTPase domain of the 23S rRNApl of Toxoplasma gondii (Tg), a related apicomplexan that is an important opportunistic pathogen in patients with AIDS. […] This was found also to be the case with a transcript derived from a PCR product covering the GTPase domain of Tgpl 23S rRNA (nt 926-1024) (FIG. 8B). Corrective mutation of the Tgpl transcript (E. coli number […]) conferred a significant increase (×5) in thiostrepton binding (FIG. 8B).
smiles,measurement,setting,value
C=C(NC(=O)C(=C)NC(=O)c1csc(C2=N[C@@H]3c4csc(n4)[C@H]4NC(=O)c5csc(n5)[C@H]([C@](C)(O)[C@@H](C)O)NC(=O)[C@H]5CSC(=N5)/C(=C/C)NC(=O)[C@H]([C@@H](C)O)NC(=O)c5csc(n5)[C@]3(CC2)NC(=O)[C@H](C)NC(=O)C(=C)NC(=O)[C@H](C)NC(=O)[C@H]([C@@H](C)CC)N[C@@H]2C=Cc3c([C@H](C)O)cc(nc3[C@H]2O)C(=O)O[C@@H]4C)n1)C(N)=O [thiostrepton],onset of inhibition of protein synthesis,[1],5 h
same,IC50,"[1]; Plasmodium falciparum, 3 h, read-out: 50% inhibition of uptake of 3H-hypoxanthine and 14C-isoleucine",3 to 5 µM
same,"thiostrepton binding, mutation A1067G","[2]; Pfpl transcript, E.coli number A1067G",~35 % of wt
same,"thiostrepton binding, mutation A1067U","[2]; Pfpl transcript, E.coli number A1067U",~14 % of wt
same,thiostrepton binding to wild type transcript,"[2]; short transcript of the GTPase domain, malaria plastid",bound thiostrepton strongly
same,thiostrepton binding to Pf 28S rRNA transcript relative to Pf 23S rRNApl,[3],~10%
same,thiostrepton binding to E. coli transcript,[4],bind thiostrepton strongly
same,increase in thiostrepton binding by corrective mutation U1077A,"[5]; Tgpl transcript, E. coli number U1077A versus wild type",5 ×
same,thiostrepton binding to wild type Tgpl transcript,"[5]; wild type has substitution E.coli number A1077U, nt 926-1024",inhibits binding
